Data set [1] has as its system Influenza A Virus, subtype H1N1. It counts as cell-based.
Data set [2] has as its system Human rhinovirus type 16 (HRV16). It counts as cell-based.
Data set [3] concerns human mammalian cells. Conditions: cited from earlier work.

The values below come from patent US20240189330A1, “Compositions and Methods for Inhibiting and Treating Viral Infections” (The Regents of the University of California, priority 2021, published 2024).

Entries after “also recorded” stand apart in the source; their conditions may differ. Where a name gives a salt, the structure may show the parent alone.

Turning to `COC(=O)/C=C/C(=O)OC` [DMF, dimethyl fumarate], the “H1N1 viral replication by qPCR” value in data set [1] is reported as “inhibit H1N1 replication; also recorded: inhibit the replication”. Moreover, the “HRV16 viral replication by qPCR” value in data set [2] is listed as “minimally inhibit HRV16 replication; also recorded: little antiviral activity”.

Consider `COC1=C(OC)C(=O)C(CCCCCCCCCC[P+](c2ccccc2)(c2ccccc2)c2ccccc2)=C(C)C1=O` [Mito-MES, 10-(4,5-dimethoxy-2-methyl-3,6-dioxo-1,4-cyclohexadienyl) decyl triphenylphosphonium], for which the “concentration physiologically relevant, efficacious and non-cytotoxic” value in data set [3] was under 2000 nM.
